Source: patent publication US10308639B2, “Phosphatidylinositol 3-kinase inhibitors” (Gilead Sciences, Inc., priority 2014, dated 2019)
Read-outs that look alike come from different tables or passages of the source.

Tests used:
Type in all cases: biochemical
PI3Kβ = biological target: T1, PI3Kβ (Homo sapiens, UniProt P42338); assay: TR-FRET enzymatic activity assay, PI3Kβ
T1 construct: made in house

PI3Kδ = biological target: T2, PI3Kδ (Homo sapiens, UniProt O00329); assay: TR-FRET enzymatic activity assay, PI3Kδ
T2 construct: made in house
T2 sequence (O00329 whole entry): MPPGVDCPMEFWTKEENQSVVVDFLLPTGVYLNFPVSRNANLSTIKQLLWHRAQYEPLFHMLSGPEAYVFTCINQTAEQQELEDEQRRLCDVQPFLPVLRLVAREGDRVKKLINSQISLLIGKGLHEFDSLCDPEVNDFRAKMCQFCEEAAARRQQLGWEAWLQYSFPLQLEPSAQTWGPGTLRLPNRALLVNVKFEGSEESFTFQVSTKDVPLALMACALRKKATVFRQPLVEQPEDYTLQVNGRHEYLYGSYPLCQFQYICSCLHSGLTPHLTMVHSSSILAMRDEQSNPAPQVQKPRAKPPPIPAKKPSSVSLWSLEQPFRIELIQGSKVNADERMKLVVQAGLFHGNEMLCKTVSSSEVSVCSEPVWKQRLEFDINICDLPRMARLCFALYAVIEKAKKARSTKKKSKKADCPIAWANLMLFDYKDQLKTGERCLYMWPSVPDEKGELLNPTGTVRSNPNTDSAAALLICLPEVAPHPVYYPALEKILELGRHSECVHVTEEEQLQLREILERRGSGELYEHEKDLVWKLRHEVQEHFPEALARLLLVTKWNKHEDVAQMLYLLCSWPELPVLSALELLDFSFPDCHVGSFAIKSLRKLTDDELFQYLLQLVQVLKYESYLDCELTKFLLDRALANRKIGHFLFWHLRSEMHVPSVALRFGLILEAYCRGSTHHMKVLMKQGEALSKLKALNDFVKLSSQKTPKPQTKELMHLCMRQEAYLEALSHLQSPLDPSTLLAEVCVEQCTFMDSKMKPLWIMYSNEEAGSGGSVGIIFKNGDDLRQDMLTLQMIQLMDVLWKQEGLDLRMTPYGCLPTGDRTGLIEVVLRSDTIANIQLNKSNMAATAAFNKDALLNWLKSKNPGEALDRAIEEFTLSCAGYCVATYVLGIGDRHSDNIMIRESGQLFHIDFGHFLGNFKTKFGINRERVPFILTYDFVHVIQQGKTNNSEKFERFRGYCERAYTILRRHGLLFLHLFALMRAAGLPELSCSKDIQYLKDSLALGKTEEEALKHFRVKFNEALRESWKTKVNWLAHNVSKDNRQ
T2 sequence (P27986 whole entry partner): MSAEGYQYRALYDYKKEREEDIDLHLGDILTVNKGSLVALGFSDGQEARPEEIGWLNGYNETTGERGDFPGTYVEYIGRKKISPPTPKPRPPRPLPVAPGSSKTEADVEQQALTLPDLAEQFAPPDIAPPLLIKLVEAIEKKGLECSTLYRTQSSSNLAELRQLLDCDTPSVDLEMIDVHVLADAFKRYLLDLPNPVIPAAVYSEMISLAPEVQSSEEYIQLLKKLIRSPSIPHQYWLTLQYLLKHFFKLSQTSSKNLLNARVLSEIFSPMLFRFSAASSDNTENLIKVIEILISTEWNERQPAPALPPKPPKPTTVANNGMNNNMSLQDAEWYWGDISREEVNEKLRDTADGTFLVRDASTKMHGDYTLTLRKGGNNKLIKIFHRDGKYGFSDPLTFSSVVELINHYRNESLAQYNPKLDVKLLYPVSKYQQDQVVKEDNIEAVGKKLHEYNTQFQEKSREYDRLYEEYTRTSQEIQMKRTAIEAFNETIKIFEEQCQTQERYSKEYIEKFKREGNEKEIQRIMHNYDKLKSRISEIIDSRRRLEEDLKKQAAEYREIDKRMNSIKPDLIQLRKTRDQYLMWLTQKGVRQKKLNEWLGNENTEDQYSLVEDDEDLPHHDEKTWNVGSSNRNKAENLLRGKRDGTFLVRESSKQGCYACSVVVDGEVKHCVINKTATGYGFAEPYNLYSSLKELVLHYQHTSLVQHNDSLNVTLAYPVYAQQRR

PI3Kγ = biological target: T3, PI3Kγ (Homo sapiens, UniProt P48736); assay: TR-FRET enzymatic activity assay, PI3Kγ; details: read-out: PI3Kγ IC50
T3 construct: made in house
T3 sequence (P48736 whole entry): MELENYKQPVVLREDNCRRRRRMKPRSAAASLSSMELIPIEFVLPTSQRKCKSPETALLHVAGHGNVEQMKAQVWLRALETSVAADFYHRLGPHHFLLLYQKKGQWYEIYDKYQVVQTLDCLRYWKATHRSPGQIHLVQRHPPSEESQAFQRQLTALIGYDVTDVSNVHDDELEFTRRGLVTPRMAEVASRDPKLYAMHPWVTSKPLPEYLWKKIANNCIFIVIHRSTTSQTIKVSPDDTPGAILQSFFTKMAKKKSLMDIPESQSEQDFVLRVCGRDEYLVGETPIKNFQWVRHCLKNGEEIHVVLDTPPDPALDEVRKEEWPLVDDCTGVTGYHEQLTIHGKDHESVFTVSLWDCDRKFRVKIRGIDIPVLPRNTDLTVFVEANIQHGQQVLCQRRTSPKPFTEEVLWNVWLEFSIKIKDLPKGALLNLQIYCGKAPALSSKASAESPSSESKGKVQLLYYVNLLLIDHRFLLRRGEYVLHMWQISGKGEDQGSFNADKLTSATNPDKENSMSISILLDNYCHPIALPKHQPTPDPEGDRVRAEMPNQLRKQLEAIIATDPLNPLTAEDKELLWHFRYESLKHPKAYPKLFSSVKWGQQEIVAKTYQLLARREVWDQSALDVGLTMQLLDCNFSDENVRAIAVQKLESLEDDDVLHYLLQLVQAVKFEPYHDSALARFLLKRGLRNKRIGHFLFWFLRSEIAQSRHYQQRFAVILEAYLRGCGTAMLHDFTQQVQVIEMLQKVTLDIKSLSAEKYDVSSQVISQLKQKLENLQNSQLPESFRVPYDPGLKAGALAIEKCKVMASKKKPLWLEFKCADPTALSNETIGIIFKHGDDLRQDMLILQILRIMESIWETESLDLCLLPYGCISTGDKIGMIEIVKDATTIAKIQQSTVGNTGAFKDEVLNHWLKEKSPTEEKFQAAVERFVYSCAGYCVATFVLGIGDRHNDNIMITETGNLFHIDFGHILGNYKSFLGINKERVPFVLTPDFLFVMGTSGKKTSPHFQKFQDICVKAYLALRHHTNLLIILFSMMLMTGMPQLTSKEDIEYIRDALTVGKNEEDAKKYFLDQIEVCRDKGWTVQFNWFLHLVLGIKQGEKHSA
Method in brief: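 Enzymatic activity against the PI3K isoforms was measured using a time-resolved fluorescence resonance energy transfer (TR-FRET) assay.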

[1] = Table 2, TR-FRET, 2x Km ATP, 30 minutes at 25° C.

T1 sequence (P42338 whole entry): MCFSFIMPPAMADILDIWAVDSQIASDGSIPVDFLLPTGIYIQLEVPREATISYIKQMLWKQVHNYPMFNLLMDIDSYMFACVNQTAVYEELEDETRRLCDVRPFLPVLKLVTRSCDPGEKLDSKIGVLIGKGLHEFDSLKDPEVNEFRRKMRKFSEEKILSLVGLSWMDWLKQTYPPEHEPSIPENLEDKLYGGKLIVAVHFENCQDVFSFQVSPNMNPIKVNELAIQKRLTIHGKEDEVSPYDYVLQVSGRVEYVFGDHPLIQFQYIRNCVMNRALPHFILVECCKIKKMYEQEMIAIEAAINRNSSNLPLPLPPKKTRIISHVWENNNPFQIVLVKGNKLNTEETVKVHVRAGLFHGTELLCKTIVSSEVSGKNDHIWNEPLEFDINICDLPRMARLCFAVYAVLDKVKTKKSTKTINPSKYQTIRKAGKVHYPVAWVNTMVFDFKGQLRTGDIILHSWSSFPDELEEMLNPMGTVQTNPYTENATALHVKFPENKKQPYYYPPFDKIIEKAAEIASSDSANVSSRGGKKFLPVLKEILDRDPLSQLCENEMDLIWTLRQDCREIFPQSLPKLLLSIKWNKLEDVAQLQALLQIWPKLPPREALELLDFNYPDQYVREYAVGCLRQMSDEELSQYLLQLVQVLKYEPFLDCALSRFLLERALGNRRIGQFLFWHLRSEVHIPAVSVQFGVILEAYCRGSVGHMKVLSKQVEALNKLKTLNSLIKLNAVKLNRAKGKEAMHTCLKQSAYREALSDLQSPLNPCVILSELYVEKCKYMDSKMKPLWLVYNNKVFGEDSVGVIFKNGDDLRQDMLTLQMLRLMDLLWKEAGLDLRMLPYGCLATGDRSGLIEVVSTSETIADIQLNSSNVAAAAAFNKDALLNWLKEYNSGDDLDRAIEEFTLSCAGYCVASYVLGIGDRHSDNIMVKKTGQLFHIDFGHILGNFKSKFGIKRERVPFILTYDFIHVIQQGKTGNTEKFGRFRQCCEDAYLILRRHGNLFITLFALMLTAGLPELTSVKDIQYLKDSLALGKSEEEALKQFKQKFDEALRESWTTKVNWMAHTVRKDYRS
T1 sequence (P27986 whole entry partner): as the sequence (P27986 whole entry partner) above

IC50 (PI3Kβ; Table 2a, same assay) [nM]	IC50 (PI3Kδ; Table 2a, same assay) [nM]	IC50 (PI3Kγ; Table 2a, same assay) [nM]	IC50 (PI3Kβ; [1]) [nM]	IC50 (PI3Kδ; [1]) [nM]	IC50 (PI3Kγ) [nM]	SMILES
3	2	740				CCC[C@H](Nc1nc(N)nc(N)c1C#N)c1nc2cccc(Cl)c2c(=O)n1-c1c[nH]cn1 [Compound 283, (S)-2,4-diamino-6-((1-(5-chloro-3-(1H-imidazol-4-yl)-4-oxo-3,4-dihydroquinazolin-2-yl)butyl)amino)pyrimidine-5-carbonitrile]
			150	36	> 10000	CC[C@H](Nc1nc(N)nc(N)c1Cl)c1nc2c(Cl)ccc(Cl)c2c(=O)n1-c1cc[nH]n1 [Compound 66, (S)-5,8-dichloro-2-(1-((2,6-diamino-5-chloropyrimidin-4-yl)amino)propyl)-3-(1H-pyrazol-3-yl)quinazolin-4(3H)-one]
			1700	300	> 10000	CC[C@H](Nc1nc(N)nc(N)c1Cl)c1nc2c(C#N)cccc2c(=O)n1-c1cn[nH]c1 [Compound 95, (S)-2-(1-((2,6-diamino-5-chloropyrimidin-4-yl)amino)propyl)-4-oxo-3-(1H-pyrazol-4-yl)-3,4-dihydroquinazoline-8-carbonitrile]
			12	16	> 10000	CC[C@H](Nc1nc(N)nc2[nH]nc(Br)c12)c1nc2c(Cl)ccc(Cl)c2c(=O)n1-c1cc[nH]n1 [Compound 81, (S)-2-(1-((6-amino-3-bromo-1H-pyrazolo[3,4-d]pyrimidin-4-yl)amino)propyl)-5,8-dichloro-3-(1H-pyrazol-3-yl)quinazolin-4(3H)-one]
